Measured values: the supplement of paper PMC10307832

Legend:
Test in all cases: relative viability (nuclei count vs DMSO), 5 days (fraction); higher = more cells survive
Tosedostat + Crizotinib = compound: CC(C)C[C@@H](C(=O)N[C@H](C(=O)OC1CCCC1)c1ccccc1)[C@H](O)C(=O)NO [Tosedostat] + C[C@@H](Oc1cc(-c2cnn(C3CCNCC3)c2)cnc1N)c1c(Cl)ccc(F)c1Cl [Crizotinib] (partner 1 µM)
How it was run: (§1)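 After 5 days of treatment, lung cancer cells in 1536-well plates were fixed and stained in a single step (final 0.05% Triton X-100, 1% formaldehyde, 1 ug/ml Hoechst) and their nuclei counted on 4× images. Treatment had been applied by pin tool the day after seeding as one drug alone or as a fixed anchor-drug dose with five library-drug doses (not always all listed) in √10 steps. Relative viability is the nuclei count of treated wells divided by that of vehicle wells, and values are medians of duplicate plates.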

[1] = compound: CC1=NN=C(O1)C2=NN=C(C=C2)N3CCC(CC3)OC4=C(C=CC(=C4)F)Cl + CS(=O)(=O)N1CCN(Cc2cc3nc(-c4cccc5[nH]ncc45)nc(N4CCOCC4)c3s2)CC1 [Pictilisib] (partner 1 µM)
How it was run: as §1

Tosedostat + Foretinib = compound: CC(C)C[C@@H](C(=O)N[C@H](C(=O)OC1CCCC1)c1ccccc1)[C@H](O)C(=O)NO [Tosedostat] + COc1cc2c(Oc3ccc(NC(=O)C4(C(=O)Nc5ccc(F)cc5)CC4)cc3F)ccnc2cc1OCCCN1CCOCC1 [Foretinib] (partner 0.25 µM)
How it was run: as §1

Tosedostat + Linsitinib = compound: CC(C)C[C@@H](C(=O)N[C@H](C(=O)OC1CCCC1)c1ccccc1)[C@H](O)C(=O)NO [Tosedostat] + C[C@]1(O)C[C@@H](c2nc(-c3ccc4ccc(-c5ccccc5)nc4c3)c3c(N)nccn32)C1 [Linsitinib] (partner 1 µM)
How it was run: as §1

Row | Cell Line | relative viability (Tosedostat + Crizotinib; first compound 0.02 µM) | relative viability (Tosedostat + Crizotinib; first compound 0.06325 µM) | relative viability (Tosedostat + Crizotinib; first compound 0.2 µM) | relative viability (Tosedostat + Crizotinib; first compound 0.6325 µM) | relative viability (Tosedostat + Crizotinib; first compound 2 µM) | relative viability ([1]; first compound 0.253 µM) | relative viability ([1]; first compound 0.8 µM) | relative viability ([1]; first compound 2.53 µM) | relative viability ([1]; first compound 8 µM) | relative viability (Tosedostat + Foretinib; first compound 0.02 µM) | relative viability (Tosedostat + Foretinib; first compound 0.06325 µM) | relative viability (Tosedostat + Foretinib; first compound 0.2 µM) | relative viability (Tosedostat + Foretinib; first compound 0.6325 µM) | relative viability (Tosedostat + Foretinib; first compound 2 µM) | relative viability (Tosedostat + Linsitinib; first compound 0.02 µM) | relative viability (Tosedostat + Linsitinib; first compound 0.06325 µM) | relative viability (Tosedostat + Linsitinib; first compound 0.2 µM) | relative viability (Tosedostat + Linsitinib; first compound 0.6325 µM) | relative viability (Tosedostat + Linsitinib; first compound 2 µM)
1 | NCI-H2170 | 1.17 | 1.12 | 1.19 | 1.22 | 1.37 | 0.282 | 0.335 | 0.368 | 0.274 | 1.01 | 1.04 | 0.958 | 0.959 | 1.05 |  |  |  |  | 
2 | NCI-H1437 | 0.941 | 0.988 | 1.03 | 0.914 | 0.895 | 0.556 | 0.426 | 0.447 | 0.386 | 1.3 | 1.32 | 1.34 | 1.25 | 1.25 | 1.12 | 1.03 | 1 | 0.752 | 0.66
3 | EBC-1 | 0.197 | 0.185 | 0.197 | 0.179 | 0.153 | 0.33 | 0.485 | 0.473 | 0.408 | 0.112 | 0.0828 | 0.0952 | 0.115 | 0.117 | 0.843 | 0.808 | 0.977 | 0.581 | 0.585
4 | NCI-H441 | 0.648 | 0.761 | 0.496 | 0.335 | 0.401 | 0.504 | 0.423 | 0.389 | 0.389 | 0.906 | 1.1 | 0.992 | 0.63 | 0.604 | 0.487 | 0.544 | 0.473 | 0.402 | 0.403
